Our source for the LC retention time values is the RepoRT retention time repository (doi:10.1016/j.chroma.2015.11.014).

A short description of this data set: RP, Agilent ZORBAX Eclipse Plus C18, 150 × 2.1 mm, 3.5 µm, 40 °C, 0.3 mL/min, estimated dead time 1.1 min; A: water + 0.1% formic acid; B: acetonitrile + 0.1% formic acid; gradient (min/%B) 0/2 1/2 2/20 16.5/98 22/98. To be noted: stereoisomer not certain.

Turning to `CC(=O)CCCCn1c(=O)c2c(ncn2C)n(C)c1=O`, the LC retention time was 6.77 min.

For `CCCc1nc2c(C)cc(-c3nc4ccccc4n3C)cc2n1Cc1ccc(-c2ccccc2C(=O)O)cc1`, the LC retention time was 8.86 min. Under `CC(O)C(=O)Nc1ccccc1` (stereo not drawn) stands 6.61 min; under `CC12CCC3c4ccc(O)cc4CCC3C1CCC2=O` (stereo not drawn), 11.2 min. Take `Cc1cn(C2CC(O)C(CO)O2)c(=O)[nH]c1=O` (stereo not drawn): the LC retention time is 4.53 min. The value for `Cc1cccc(N(C)C(=S)Oc2ccc3ccccc3c2)c1` was 15.5 min; that for `C#CC1(O)CCC2C3CCC4=C(CCC(=O)C4)C3CCC21C` (stereo not drawn) was 11.1 min; that for `OCCN(CCO)c1nc(N2CCCCC2)c2nc(N(CCO)CCO)nc(N3CCCCC3)c2n1` was 7.67 min.

Regarding `CCCC[P+](c1ccccc1)(c1ccccc1)c1ccccc1`, the LC retention time was 8.85 min.

Turning to `CNCCOC(c1ccccc1)c1ccccc1`, the LC retention time is 7.56 min. The value for `CCNc1nc(NC(C)(C)C)nc(SC)n1` was 9.67 min; that for `CNC(=O)C(=NOC)c1ccccc1COc1cc(C)ccc1C` was 13.2 min. The value for `CN(C)N=Nc1nc[nH]c1C(N)=O` was 4.47 min.
